One assay concerns STAM mice (NASH models). Description: Non-alcoholic steatohepatitis (NASH) mouse models (STAM mice). Conditions: for NAFLD Activity score, compound administered group: 30 mg/kg twice daily orally for 3 weeks, age of six to nine weeks; for reduction in NAFLD activity score (statistical significance): versus vehicle group. The class given is in vivo. The method, then:
STAM (registered trademark) mice (Stelic Institute & Co., Inc.) were used as NASH models. The STAM (registered trademark) mice were prepared by subcutaneously administering 200 μg of streptozotocin (Sigma Aldrich) one time to the back of 2-day old male mice and feeding the mice with a high fat diet (High Fat Diet 32, CLEA Japan, Inc.) from the age of 4 weeks (Medical Molecular Morphology, 46 (2013) pp. 141-152).
The test compound was orally administered every day from the age of 5 or 6 weeks. At the age of 9 or 10 weeks, bloods and livers were collected under anesthesia. The bloods were subjected to biochemical tests. After the wet weights of the livers were measured, RNA was extracted from portions of the livers, and the expression levels of the inflammation and fibrosis marker genes were measured by the quantitative PCR method. Further, the amounts of hydroxyproline or collagen in the livers were measured. Paraffin sections or frozen sections were prepared from portions of the livers and were subjected to histopathological tests to determine the NAFLD activity scores, the fibrosis areas or the inflammation areas. The results were statistically analyzed using EXSUS (CAC EXICARE CORPORATION) or Prism 4 (GraphPad Software, Inc.).

Another assay concerns the target T1, human LPA1 (Homo sapiens, UniProt Q92633).
T1 construct: purchased ChanTest A324; host or cells: RH 7777 cells (recombinant expression of human LPA1)
Description: Test of LPA1 antagonism ([35S]GTPγS binding, membrane fraction of RH 7777 cells expressing human LPA1). The class given is biochemical. The conditions noted are these: LPA 100 nM, read-out: IC50, concentration required for 50% inhibition of the binding of LPA1 and [35S]GTPγS. The protocol: 5 μg of a membrane fraction of RH 7777 cells expressing human LPA1 (A324, ChanTest) was suspended in a reaction buffer (20 mM HEPES, 100 mM NaCl, 10 mM MgCl2, 10 μM GDP, 5 μg saponin, 0.2% BSA, 0.1 nM [^35S]GTPγS (NEG030X, Perkin Elmer), pH 7.4). The test compounds dissolved in DMSO in various concentrations were each added to the suspension. After preincubation at 30° C. for 15 minutes, LPA (L7260, Sigma, final concentration 100 nM) was added, and the suspensions were incubated at 30° C. for 30 minutes. The membrane fractions were collected on a glass fiber filter (GF/B, Whatman) by using a cell harvester (M30, Brandel), and were washed with a 10 mM phosphate buffer (pH 7.4). The radioactivity of the membrane fractions was measured with a liquid scintillation analyzer (2900TR, Packard). The concentration (IC50) of the test compound required for 50% inhibition of the binding of LPA1 and [^35S]GTPγS was determined by non-linear regression analysis using EXSAS (Arm Systex).
In general terms: GTPγS is a poorly hydrolysed GTP analogue; its binding reports G protein activation.

The structures appear in SMILES notation.

T1 sequence (Q92633 whole entry): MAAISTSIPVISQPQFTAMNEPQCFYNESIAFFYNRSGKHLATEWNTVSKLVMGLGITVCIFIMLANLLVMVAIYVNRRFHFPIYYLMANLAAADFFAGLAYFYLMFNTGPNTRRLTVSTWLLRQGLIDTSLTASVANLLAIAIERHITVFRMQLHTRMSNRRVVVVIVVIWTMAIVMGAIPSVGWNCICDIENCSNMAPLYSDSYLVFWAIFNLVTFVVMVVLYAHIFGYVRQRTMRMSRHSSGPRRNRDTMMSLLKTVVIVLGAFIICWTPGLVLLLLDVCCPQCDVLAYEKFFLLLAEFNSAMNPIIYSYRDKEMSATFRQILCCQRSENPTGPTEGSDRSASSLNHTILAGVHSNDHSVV

In the case of `COc1cc(-c2sc(Cl)cc2NC(=O)O[C@H](C)c2ccccc2)ccc1-c1ccc(C2(C(=O)O)CC2)cc1` [Production Example 6, (R)-1-[4′-(5-chloro-3-{[(1-phenylethoxy)carbonyl]amino}thiophen-2-yl)-2′-methoxy-[1,1′-biphenyl]-4-yl]cyclopropanecarboxylic acid], in the assay on STAM mice (NASH models), the “NAFLD Activity score, compound administered group” value was found to be 2.8 ± 1.0 and the “reduction in NAFLD activity score (statistical significance)” value was “significant (p<0.05) reduction”. For the same compound, the IC50 at human LPA1 is at most 100 nM.

With `Cc1cscc1[C@@H](C)OC(=O)Nc1cc(F)sc1-c1ccc(-c2ccc(C3(C(=O)O)CC3)cc2)cc1` [Production Example 7, (R)-1-{4′-[5-fluoro-3-({[1-(4-methylthiophen-3-yl)ethoxy]carbonyl}amino)thiophen-2-yl]-[1,1′-biphenyl]-4-yl}cyclopropanecarboxylic acid], on human LPA1, the IC50 is at most 100 nM.

As to `COc1cc(-c2sc(F)cc2NC(=O)O[C@H](C)c2ccccc2Cl)ccc1-c1ccc(C2(C(=O)O)CC2)cc1` [Production Example 8, (R)-1-{4′-[3-({[1-(2-chloropheny)ethoxy]carbonyl}amino)-5-fluorothiophen-2-yl]-2′-methoxy-[1,1′-biphenyl]-4-yl}cyclopropanecarboxylic acid], the IC50 at human LPA1 was at most 100 nM.

In the case of `COc1cc(-c2sc(Cl)cc2NC(=O)O[C@H](C)c2cc(F)ccc2F)ccc1-c1ccc(C2(C(=O)O)CC2)cc1` [Production Example 9, (R)-1-{4′-[5-chloro-3-({[1-(2,5-difluorophenyl)ethoxy]carbonyl}amino)thiophen-2-yl]-2′-methoxy-[1,1′-biphenyl]-4-yl}cyclopropanecarboxylic acid], in the assay with STAM mice (NASH models), the “NAFLD Activity score, compound administered group” value worked out at 3.1 ± 1.4 and the “reduction in NAFLD activity score (statistical significance)” value is “significant (p<0.05) reduction”.

These data come from patent US20180360803A1, “PHARMACEUTICAL COMPOSITION FOR TREATMENT OR PREVENTION OF NASH” (UBE INDUSTRIES, LTD., priority 2015, published 2018).
